In US6710048B2, “Pyrazine derivatives as modulators of tyrosine kinases” (Ortho-McNeil Pharmaceutical, Inc., priority 2000, dated 2004):
Like-named read-outs stand apart in the source and are kept apart here.

What was measured:
[1] = test system: HeLa cervical adenocarcinoma; assay: Cell proliferation assay (14C-thymidine incorporation), HeLa; assay type: cell-based; details: Homo sapiens, read-out: Inhibition of cell proliferation IC50
Method: (§1) The ability of a test compound to inhibit the proliferation of cell growth was determined by measuring incorporation of ^14C-labelled thymidine into newly synthesized DNA within the cells. This method was used on cell lines derived from carcinomas originating from several tissues such as HeLa cervical adenocarcinoma (American Type Culture Collection (ATCC), Virginia, Cat. #CCL-2), A375 malignant melanoma (ATCC CRL-1619), SK-OV-3 ovarian adenocarcinoma (ATCC HTB-77) HCT-116 colon carcinoma (CCL-247) and PC-3 prostate adenocarcinoma (ATCC CRL-1435). The method was also used on primary cells such as HUVEC endothelial cells (ATCC CRL-1730). In this way the effect of a compound on cell growth of cells with many different phenotypes can be determined. Cells were trypsinized and counted and 3000-8000 cells were added to each well of a 96-well CytoStar tissue culture treated scintillating microplate (Amersham #RPNQ0160) in complete medium in a volume of 100 μl. Cells were incubated for 24 hours in complete medium at 37° C. in an atmosphere containing 5% CO2.
(§2) Next, 1 μl of test compound in 100% DMSO was added to the wells of the plate. DMSO only was added to control wells. Cells were incubated for 24 more hours in complete medium at 37° C. in an atmosphere containing 5% CO2. Methyl ^14C-thymidine 56 mCi/mmol (NEN #NEC568 or Amersham #CFA532) was diluted in complete medium and 0.2 μCi/well was added to each well of the CytoStar plate in a volume of 20 μl. The plate was incubated for 24 hours at 37° C. plus 5% CO2 in drug plus ^14C-thymidine. The contents of the plate were discarded into a ^14C radioactive waste container by inverting the plate and the plate was washed twice with 200 μl PBS. 200 μl of PBS is then added to each well. The top of the plate was sealed with a transparent plate sealer and a white plate backing sealer (Packard #6005199) was applied to the bottom of the plate. The degree of Methyl ^14C-thymidine incorporation was quantified on a Packard Top Count.

[2] = test system: SK-OV-3 ovarian adenocarcinoma; assay: Cell proliferation assay (14C-thymidine incorporation), SK-OV-3; assay type: cell-based; details: Homo sapiens, read-out: Inhibition of cell proliferation IC50
Method: as §1, §2

[3] = test system: PC-3 prostate adenocarcinoma; assay: Cell proliferation assay (14C-thymidine incorporation), PC-3; assay type: cell-based; details: Homo sapiens, read-out: Inhibition of cell proliferation IC50
Method: as §1, §2

[4] = test system: MDA-MB-231; assay: Cell proliferation assay (14C-thymidine incorporation), MDA-MB-231; assay type: cell-based; details: Homo sapiens, read-out: Inhibition of cell proliferation IC50
Method: as §1, §2

[5] = test system: HCT-116 colon carcinoma; assay: Cell proliferation assay (14C-thymidine incorporation), HCT-116; assay type: cell-based; details: Homo sapiens, read-out: Inhibition of cell proliferation IC50
Method: as §1, §2

[6] = molecular target: FGF-R2 (Homo sapiens, UniProt P21802); assay: FGF-R2 kinase selectivity assay; assay type: biochemical; details: Table 4 kinase selectivity; read-out: IC50, Assay 15 FGF-R2
Method: (§3) Assays to test compound inhibition of other kinases were preformed using methods that measure the amount of phosphorylation of a biotinylated peptide substrate. Biotinylated peptide substrates were selected from the literature as appropriate for the enzyme being evaluated. The general procedure used to assay for kinase activity is as follows: A kinase reaction mix was prepared in 50 mM Tris-HCl pH=8, 10 mM MgCl2, 0.1 mM NaVO4, 1 mM DTT, 5-10 μM ATP, 0.25-1 μM biotinylated peptide substrate, 0.2-0.8 μCuries per well ^33P-γ-ATP [2000-3000 Ci/mmol]. Assay conditions vary slightly for each protein kinase, for example, insulin receptor kinase requires 10 mM MnCl2 for activity and Calmodulin-dependent protein kinase requires calmodulin and 2 mM CaCl2. The reaction mixture was dispensed into the wells of a streptavidin coated Flashplate and 1 μl drug stock in 100% DMSO was added to a 100 μl reaction volume resulting in a final concentration of 1% DMSO in the reaction. Enzyme was diluted in 50 mM Tris-HCl pH=8.0, 0.1% BSA and added to each well. The reaction was incubated for one hour at 30° C. in the presence of compound. After one hour the reaction mix was aspirated from the plate and the plate was washed with PBS containing 100 mM EDTA. The plate was read on a scintillation counter to determine ^33P-γ-ATP incorporated into the immobilized peptide. Test compounds were assayed in duplicate at 8 concentrations [100 tM, 10 μM, 1 μM, 100 nM, 10 nM, 1 nM, 100 μM, 10 μM]. A maximum and minimum signal for the assay was determined on each plate. The IC50 was calculated from the dose response curve of the percent inhibition of the maximum signal in the assay according to the formula [max signal−background/test compound signal−background (100)=% inhibition] by graphing the percent inhibition against the log concentration of test compound. Known inhibitor compounds appropriate for the kinase being assayed were also included on each plate.

[7] = molecular target: HER2 (Homo sapiens, UniProt P04626); assay: HER2 kinase selectivity assay; assay type: biochemical; details: Table 4 kinase selectivity; read-out: IC50, Assay 16 HER2
Method: as §3

[8] = molecular target: T1, VEGF-R (vascular endothelial growth factor receptor-2) (Rattus norvegicus, UniProt O08775); assay: VEGF-R screening assay (33P FlashPlate kinase assay); assay type: biochemical
T1 construct: polyhistidine (6xHis) (N)
Method: A kinase reaction mixture was prepared containing 50 mM Tris-HCl pH=8, 10 mM MgCl2, 0.1 mM NAPO4, 1 mM DTT, 10 μM ATP, 0.025 μM biotinylated peptide substrate and 0.8 μCuries per well ^33P-γ-ATP [2000-3000 Ci/mmol]. 70 μl of the kinase reaction mixture was dispensed into the well of a streptavidin coated FlashPlate™ (Cat. # SMP103, NEN, Boston, Mass.). Then 1 μl of test compound stock in 100% DMSO was added to the wells resulting in a final concentration of 1% DMSO in the reaction with a 100 μl final reaction volume. Next, soluble rat tyrosine kinase containing an N-terminal 6×HIS tag was diluted in 50 mM Tris-HCl pH=8.0, 0.1% BSA at a concentration of 5 ng per microliter and 30 μl (150 ng enzyme per test well) was added to each well to initiate the reaction. The reaction was incubated for one hour at 30° C. At the end of the 1-hour incubation, the reaction was terminated by aspirating the reaction mixture from the plate and washing the wells twice with PBS containing 100 mM EDTA. The PLCI biotinylated peptide substrate becomes immobilized on the Flashplate™ and the incorporation of ^33P-γ-ATP was measured by reading the plate on a scintillation counter. Inhibition of the enzymatic activity of the VEGF-R was measured by observing a reduced amount of ^33P-γ-ATP incorporated into the immobilized peptide.
(§4) The term n.d. means not tested.
as §3
VEGF-R (vascular endothelial growth factor receptor-2) is a fusion protein containing a polyhistidine tag at the N-terminus followed by amino acids 786-1343 of the rat VEGF-R2 kinase domain (GenBank Accession #U93306). CDK1 (cyclin dependent kinase 1) is isolated from insect cells expressing both the human CDK1 catalytic subunit and its positive regulatory subunit cyclin B (New England Biolabs, Beverly, Mass., Cat. #6020). CDK4 (cyclin dependent kinase 4) contains amino acids 769 to 921 of the mouse […] protein found in the GST-retinoblastoma protein construct (Santa Cruz Biotechnology, Santa Cruz, Calif.; Cat. #SC-4112). […]

[9] = molecular target: T2, CDK1 (cyclin dependent kinase 1) / cyclin B (Homo sapiens, UniProt P06493); assay: CDK1 kinase assay; assay type: biochemical
T2 construct: purchased New England Biolabs 6020; host or cells: insect cells
Method: as §4
as §3, with “Test compounds were assayed in duplicate at 8 concentrations [100 tM, 10 μM, 1 μM, 100 nM, 10 nM, 1 nM, 100 μM, 10 μM].” left out
VEGF-R (vascular endothelial growth factor receptor-2) is a fusion protein containing a polyhistidine tag at the N-terminus followed by amino acids 786-1343 of the rat VEGF-R2 kinase domain (GenBank Accession #U93306). CDK1 (cyclin dependent kinase 1) is isolated from insect cells expressing both the human CDK1 catalytic subunit and its positive regulatory subunit cyclin B (New England Biolabs, Beverly, Mass., Cat. #6020). CDK4 (cyclin dependent kinase 4) contains amino acids 769 to 921 of the mouse […] protein found in the GST-retinoblastoma protein construct (Santa Cruz Biotechnology, Santa Cruz, Calif.; Cat. #SC-4112). Insulin Receptor Kinase consists of residues 941-1313 of the cytoplasmic domain of the beta-subunit of the human insulin receptor (BIOMOL, Plymouth Meeting, Pa., Cat. #SE-195). Protein Kinase A is the catalytic subunit of cAMP dependent protein kinase-A purified from bovine heart (Upstate Biotech, Lake Placid, N.Y., Cat#14-114). PKC (protein kinase-C) is the gamma or beta isoform of the human protein produced in insect cells (BIOMOL, Plymouth Meeting, Pa., Cat. #SE-143). Casein Kinase 1 is a truncation at amino acid 318 of the C-terminal portion of the rat CK1 delta isoform produced in E.coli (New England Biolabs, Beverly, Mass., Cat. #6030). Casein Kinase 2 includes the alpha and beta subunits of the human CK2 protein produced in E.coli (New England Biolabs, Beverly, Mass., Cat. #6010). Calmodulin Kinase (calmodulin-dependent protein kinase 2) is a truncated version of the alpha subunit of the rat protein produced in insect cells (New England Biolabs, Beverly, Mass., Cat. #6060). Glycogen Synthase Kinase-3 is the beta isoform of the rabbit enzyme produced in E. coli (New England Biolabs, Beverly, Mass., Cat. #6040). MAP Kinase is the rat ERK-2 isoform containing a polyhistidine tag at the N-terminus produced in E. coli. and activated by phosphorylation with MEK1 prior to purification (BIOMOL, Plymouth Meeting, Pa., Cat. #SE-137). EGFR (epidermal growth factor receptor) is purified from human A431 cell membranes (Sigma, St. Louis, Mo., Cat.# E3641). […]

[10] = Tables 1-3, >10 or >100 = no 50% inhibition at highest dose tested, read-out: VEGF-R IC50
[11] = Tables 1-3, >10 or >100 = no 50% inhibition at highest dose tested, read-out: CDK IC50

T2 sequence (P06493 whole entry): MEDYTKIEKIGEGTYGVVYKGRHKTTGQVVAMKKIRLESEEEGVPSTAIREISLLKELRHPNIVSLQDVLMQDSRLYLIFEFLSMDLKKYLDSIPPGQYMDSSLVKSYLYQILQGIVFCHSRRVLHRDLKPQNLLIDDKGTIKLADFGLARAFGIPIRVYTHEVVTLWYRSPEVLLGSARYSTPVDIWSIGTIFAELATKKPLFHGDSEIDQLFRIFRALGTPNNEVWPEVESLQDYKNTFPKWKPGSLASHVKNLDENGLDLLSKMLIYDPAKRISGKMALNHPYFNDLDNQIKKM
T2 sequence (P14635 whole entry partner): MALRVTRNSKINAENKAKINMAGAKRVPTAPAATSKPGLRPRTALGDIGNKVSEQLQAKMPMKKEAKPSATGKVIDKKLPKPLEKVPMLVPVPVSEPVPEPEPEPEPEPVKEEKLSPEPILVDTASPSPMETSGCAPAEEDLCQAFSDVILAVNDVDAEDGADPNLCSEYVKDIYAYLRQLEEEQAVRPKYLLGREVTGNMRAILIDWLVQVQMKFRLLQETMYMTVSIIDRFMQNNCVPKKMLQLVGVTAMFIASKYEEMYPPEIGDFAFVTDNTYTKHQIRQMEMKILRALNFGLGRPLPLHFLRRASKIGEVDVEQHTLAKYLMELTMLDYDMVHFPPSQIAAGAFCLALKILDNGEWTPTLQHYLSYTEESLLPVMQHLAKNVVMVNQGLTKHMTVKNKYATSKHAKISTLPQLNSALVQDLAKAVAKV
T1 sequence (O08775 786-1343): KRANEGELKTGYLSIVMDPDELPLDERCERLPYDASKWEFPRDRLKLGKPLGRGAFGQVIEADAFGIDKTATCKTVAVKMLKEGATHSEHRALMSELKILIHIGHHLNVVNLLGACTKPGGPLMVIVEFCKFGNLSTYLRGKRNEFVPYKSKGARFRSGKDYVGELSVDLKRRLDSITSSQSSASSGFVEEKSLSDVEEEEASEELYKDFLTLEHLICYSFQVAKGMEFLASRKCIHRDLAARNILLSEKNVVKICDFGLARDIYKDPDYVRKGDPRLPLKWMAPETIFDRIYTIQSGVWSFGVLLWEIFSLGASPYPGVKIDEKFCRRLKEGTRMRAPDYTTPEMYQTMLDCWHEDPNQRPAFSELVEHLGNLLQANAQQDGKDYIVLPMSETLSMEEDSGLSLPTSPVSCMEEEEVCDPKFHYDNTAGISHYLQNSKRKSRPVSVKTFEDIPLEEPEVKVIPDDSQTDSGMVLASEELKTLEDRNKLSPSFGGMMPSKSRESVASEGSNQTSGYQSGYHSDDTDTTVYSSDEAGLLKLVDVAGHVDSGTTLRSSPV
FGF-R2, sequence (P21802 22-821, species assumed): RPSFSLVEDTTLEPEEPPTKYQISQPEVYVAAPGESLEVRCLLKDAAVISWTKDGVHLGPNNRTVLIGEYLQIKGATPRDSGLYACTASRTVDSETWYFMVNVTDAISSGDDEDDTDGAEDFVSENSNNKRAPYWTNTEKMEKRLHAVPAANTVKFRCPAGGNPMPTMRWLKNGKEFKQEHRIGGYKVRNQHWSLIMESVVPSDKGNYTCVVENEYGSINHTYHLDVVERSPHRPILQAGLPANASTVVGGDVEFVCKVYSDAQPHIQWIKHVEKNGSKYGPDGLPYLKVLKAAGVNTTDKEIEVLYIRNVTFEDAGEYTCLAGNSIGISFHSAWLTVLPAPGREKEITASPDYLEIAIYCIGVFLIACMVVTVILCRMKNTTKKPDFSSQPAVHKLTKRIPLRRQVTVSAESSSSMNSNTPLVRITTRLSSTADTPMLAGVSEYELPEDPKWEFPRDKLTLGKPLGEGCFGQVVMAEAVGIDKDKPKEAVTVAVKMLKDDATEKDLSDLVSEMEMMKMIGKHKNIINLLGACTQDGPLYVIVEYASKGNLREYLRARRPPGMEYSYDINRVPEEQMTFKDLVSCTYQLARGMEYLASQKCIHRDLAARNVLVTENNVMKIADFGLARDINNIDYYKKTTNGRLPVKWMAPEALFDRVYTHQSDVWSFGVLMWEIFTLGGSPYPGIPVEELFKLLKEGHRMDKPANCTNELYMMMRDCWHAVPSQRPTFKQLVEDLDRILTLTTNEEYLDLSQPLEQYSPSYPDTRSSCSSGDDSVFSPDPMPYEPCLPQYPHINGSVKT
HER2, sequence (P04626 23-1255, species assumed): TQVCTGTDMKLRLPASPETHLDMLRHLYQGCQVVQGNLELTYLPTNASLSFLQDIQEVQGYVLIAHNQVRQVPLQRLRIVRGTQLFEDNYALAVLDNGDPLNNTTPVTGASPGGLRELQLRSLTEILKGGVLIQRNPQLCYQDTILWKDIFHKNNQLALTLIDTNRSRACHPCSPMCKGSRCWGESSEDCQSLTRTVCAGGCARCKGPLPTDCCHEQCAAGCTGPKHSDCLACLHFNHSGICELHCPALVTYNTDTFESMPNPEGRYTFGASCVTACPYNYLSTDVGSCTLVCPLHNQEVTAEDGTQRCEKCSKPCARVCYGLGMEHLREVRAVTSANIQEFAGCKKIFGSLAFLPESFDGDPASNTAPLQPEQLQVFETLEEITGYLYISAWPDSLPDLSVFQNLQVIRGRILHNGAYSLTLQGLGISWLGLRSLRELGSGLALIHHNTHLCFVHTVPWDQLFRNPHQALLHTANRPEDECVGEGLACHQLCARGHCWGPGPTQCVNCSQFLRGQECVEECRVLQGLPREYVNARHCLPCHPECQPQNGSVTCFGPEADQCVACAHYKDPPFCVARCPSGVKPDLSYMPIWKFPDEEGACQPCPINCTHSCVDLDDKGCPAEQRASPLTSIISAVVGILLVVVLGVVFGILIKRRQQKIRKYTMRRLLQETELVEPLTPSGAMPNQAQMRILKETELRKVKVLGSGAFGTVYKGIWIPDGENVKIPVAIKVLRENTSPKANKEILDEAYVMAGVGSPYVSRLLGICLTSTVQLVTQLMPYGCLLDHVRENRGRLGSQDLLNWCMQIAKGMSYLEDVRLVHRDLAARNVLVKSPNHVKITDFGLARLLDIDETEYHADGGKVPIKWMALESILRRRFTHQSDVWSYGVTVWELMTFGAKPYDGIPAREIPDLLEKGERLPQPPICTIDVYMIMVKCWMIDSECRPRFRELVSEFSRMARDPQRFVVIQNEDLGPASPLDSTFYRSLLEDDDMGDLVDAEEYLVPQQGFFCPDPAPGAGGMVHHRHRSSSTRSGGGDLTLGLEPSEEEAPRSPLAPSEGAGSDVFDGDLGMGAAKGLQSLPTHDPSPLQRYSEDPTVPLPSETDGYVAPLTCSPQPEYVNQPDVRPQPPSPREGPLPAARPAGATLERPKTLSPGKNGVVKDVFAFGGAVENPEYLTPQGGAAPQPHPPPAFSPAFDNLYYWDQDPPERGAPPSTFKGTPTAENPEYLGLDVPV

IC50 [1]	IC50 [8, 10]	IC50 [9, 11]	also measured	Compound
12.5 µM	–	–	IC50 [2]: > 10 µM; IC50 [3]: 5.34 µM	Clc1cccc(Nc2cncc(-c3cncc(NCCCn4cccn4)c3)n2)c1 [Cmd 75, N-(3-chlorophenyl)-6-[5-[[3-(1H-pyrazol-1-yl)propyl]amino]-3-pyridinyl]-2-pyrazinamine]
3.8 µM	–	–	IC50 [4]: 1.88 µM; IC50 [5]: 3.29 µM; IC50 [3]: 3.2 µM	Clc1cccc(Nc2cncc(-c3cncc(NCCCc4ccncc4)c3)n2)c1 [Cmd 71, N-(3-chlorophenyl)-6-[5-[[3-(4-pyridinyl)propyl]amino]-3-pyridinyl]-2-pyrazinamine]
5.7 µM	–	–	IC50 [4]: 2.57 µM; IC50 [5]: 4.97 µM; IC50 [3]: 2.58 µM	Clc1cccc(Nc2cncc(-c3cncc(NCCCc4cccnc4)c3)n2)c1 [Cmd 72, N-(3-chlorophenyl)-6-[5-[[3-(3-pyridinyl)propyl]amino]-3-pyridinyl]-2-pyrazinamine]
–	0.03 µM	> 10 µM	IC50 [6]: 0.221 µM; IC50 [7]: 0.966 µM; IC50 ([8]; Table 4 kinase selectivity, read-out: IC50, Assay 1 VEGF-R): 0.03 µM; IC50 ([9]; Table 4 kinase selectivity, 10 = approximate value, read-out: IC50, Assay 2 CDK1): ~10 µM	Clc1cccc(Nc2cncc(-c3cncc(NCCCn4ccnc4)c3)n2)c1 [Cmd 77]
–	0.17 µM	~100 µM	–	OCCCNc1cncc(-c2cncc(Nc3cccc(F)c3)n2)c1 [Cmd 52]
–	0.99 µM	> 10 µM	–	COCCOCC(=O)Nc1cncc(-c2cncc(Nc3cccc(Cl)c3)n2)c1 [Cmd 98]
–	1.36 µM	> 10 µM	–	Nc1ncc(NCCCO)cc1-c1cncc(Nc2cccc(Cl)c2)n1 [Cmd 107]
4.94 µM	–	–	IC50 [2]: 12.9 µM	Clc1cccc(Nc2cncc(-c3cncc(NCCCn4cncn4)c3)n2)c1 [Cmd 76, N-(3-chlorophenyl)-6-[5-[[3-(1H-1,2,4-triazol-1-yl)propyl]amino]-3-pyridinyl]-2-pyrazinamine]
–	0.268 µM	> 10 µM	–	Clc1ccc(Nc2cncc(-c3cncc(NCCCc4ccncc4)c3)n2)cc1Cl [Cmd 89]
–	> 100 µM	> 100 µM	–	CCOCCCNC(=O)c1cncc(-c2cncc(Nc3cccc(Cl)c3)n2)c1 [Cmd 40]
–	5.5 µM	> 100 µM	–	CN(C)CCCNC(=O)c1cncc(-c2cncc(Nc3cccc(Cl)c3)n2)c1 [Cmd 37]
–	0.578 µM	> 10 µM	–	O=C(Nc1cncc(-c2cncc(Nc3cccc(Cl)c3)n2)c1)N1CCCC1 [Cmd 74]
